Paper PMC5491562, “Effects of semaglutide on beta cell function and glycaemic control in participants with type 2 diabetes: a randomised, double-blind, placebo-controlled trial” (Diabetologia, 2017)

How the values were obtained:
[1] = Steady-state pharmacokinetics of semaglutide; conditions: 1.0 mg s.c. at steady state; estimated in 34 participants; geometric mean (CV, %)
Excerpt: Blood samples were drawn throughout the trial to assess PK (trough values).
time–concentration curve during a dosing interval), calculated using standard non-
compartmental methods using the linear trapezoidal method on the observed concentrations
using actual time points; maximum concentration (Cmax), derived as the maximum of all
half-life (t½), calculated as log2/λz, where λz was estimated by log-linear regression on the

[2] = cited from earlier work
Excerpt: Semaglutide (Novo Nordisk, Bagsværd, Denmark) is a GLP-1 analogue in development for the once-weekly treatment of type 2 diabetes. It has 94% structural homology to native human GLP-1, and is based on the same […] technology as liraglutide. Important structural modifications make semaglutide more resistant to degradation by dipeptidyl peptidase-4 and improve binding to albumin [16]. These modifications result in a t ½ of approximately 1 week, making semaglutide appropriate for once-weekly s.c. administration, with a fully retained potency.

[3] = test system: participants with type 2 diabetes; conditions: in vivo
Method: Adverse events (AEs) were recorded from the time of the participant signing informed consent through to the end of follow-up and were regarded as treatment-emergent adverse events (TEAEs) if beginning (or increasing in severity) after the first study dose and no later than the end of follow-up.

Compound: CC[C@H](C)[C@H](NC(=O)[C@H](Cc1ccccc1)NC(=O)[C@H](CCC(=O)O)NC(=O)[C@H](CCCCNC(=O)COCCOCCNC(=O)COCCOCCNC(=O)CC[C@H](NC(=O)CCCCCCCCCCCCCCCCC(=O)O)C(=O)O)NC(=O)[C@H](C)NC(=O)[C@H](C)NC(=O)[C@H](CCC(N)=O)NC(=O)CNC(=O)[C@H](CCC(=O)O)NC(=O)[C@H](CC(C)C)NC(=O)[C@H](Cc1ccc(O)cc1)NC(=O)[C@H](CO)NC(=O)[C@H](CO)NC(=O)[C@@H](NC(=O)[C@H](CC(=O)O)NC(=O)[C@H](CO)NC(=O)[C@@H](NC(=O)[C@H](Cc1ccccc1)NC(=O)[C@@H](NC(=O)CNC(=O)[C@H](CCC(=O)O)NC(=O)C(C)(C)NC(=O)[C@@H](N)Cc1cnc[nH]1)[C@@H](C)O)[C@@H](C)O)C(C)C)C(=O)N[C@@H](C)C(=O)N[C@@H](Cc1c[nH]c2ccccc12)C(=O)N[C@@H](CC(C)C)C(=O)N[C@H](C(=O)N[C@@H](CCCNC(=N)N)C(=O)NCC(=O)N[C@@H](CCCNC(=N)N)C(=O)NCC(=O)O)C(C)C [semaglutide, Semaglutide]
- Vz/F [1]: 11.2 (18.6) l
- t½ [2]: approximately 1 week
- Anti-semaglutide antibodies [3]: no anti-
- Any TEAE, number of participants with events (%) [3]: 28 (75.7)
- Gastrointestinal disorders, number of participants with events (%) [3]: 19 (51.4)
- Injury, poisoning and procedural complications, number of participants with events (%) [3]: 1 (2.7)
- Metabolism and nutrition disorders, number of participants with events (%) [3]: 4 (10.8)
- Musculoskeletal and connective disorders, number of participants with events (%) [3]: 1 (2.7)
- Nervous system disorders, number of participants with events (%) [3]: 5 (13.5)
- Participants with TEAEs [3]: 75.7%
- Participants with diarrhoea [3]: 10.8%
- Participants with gastrointestinal TEAEs [3]: 51.4%
- Participants with nausea [3]: 18.9%
- Participants with vomiting [3]: 16.2%
- Serious TEAE, number of participants with events (%) [3]: 2 (5.4)
- Severe TEAE, number of participants with events (%) [3]: 1 (2.7)
- Systolic blood pressure [3]: slightly decreased
- TEAE leading to withdrawal, number of participants with events (%) [3]: 1 (2.7)
- Vascular disorders, number of participants with events (%) [3]: 3 (8.1)
